SMILES strings stand for the structures.

Results on 33 molecules are retold here after PMC3031908 (Bioorganic & medicinal chemistry, 2008).

Sequence of human Nav1.2 (Q99250 whole entry): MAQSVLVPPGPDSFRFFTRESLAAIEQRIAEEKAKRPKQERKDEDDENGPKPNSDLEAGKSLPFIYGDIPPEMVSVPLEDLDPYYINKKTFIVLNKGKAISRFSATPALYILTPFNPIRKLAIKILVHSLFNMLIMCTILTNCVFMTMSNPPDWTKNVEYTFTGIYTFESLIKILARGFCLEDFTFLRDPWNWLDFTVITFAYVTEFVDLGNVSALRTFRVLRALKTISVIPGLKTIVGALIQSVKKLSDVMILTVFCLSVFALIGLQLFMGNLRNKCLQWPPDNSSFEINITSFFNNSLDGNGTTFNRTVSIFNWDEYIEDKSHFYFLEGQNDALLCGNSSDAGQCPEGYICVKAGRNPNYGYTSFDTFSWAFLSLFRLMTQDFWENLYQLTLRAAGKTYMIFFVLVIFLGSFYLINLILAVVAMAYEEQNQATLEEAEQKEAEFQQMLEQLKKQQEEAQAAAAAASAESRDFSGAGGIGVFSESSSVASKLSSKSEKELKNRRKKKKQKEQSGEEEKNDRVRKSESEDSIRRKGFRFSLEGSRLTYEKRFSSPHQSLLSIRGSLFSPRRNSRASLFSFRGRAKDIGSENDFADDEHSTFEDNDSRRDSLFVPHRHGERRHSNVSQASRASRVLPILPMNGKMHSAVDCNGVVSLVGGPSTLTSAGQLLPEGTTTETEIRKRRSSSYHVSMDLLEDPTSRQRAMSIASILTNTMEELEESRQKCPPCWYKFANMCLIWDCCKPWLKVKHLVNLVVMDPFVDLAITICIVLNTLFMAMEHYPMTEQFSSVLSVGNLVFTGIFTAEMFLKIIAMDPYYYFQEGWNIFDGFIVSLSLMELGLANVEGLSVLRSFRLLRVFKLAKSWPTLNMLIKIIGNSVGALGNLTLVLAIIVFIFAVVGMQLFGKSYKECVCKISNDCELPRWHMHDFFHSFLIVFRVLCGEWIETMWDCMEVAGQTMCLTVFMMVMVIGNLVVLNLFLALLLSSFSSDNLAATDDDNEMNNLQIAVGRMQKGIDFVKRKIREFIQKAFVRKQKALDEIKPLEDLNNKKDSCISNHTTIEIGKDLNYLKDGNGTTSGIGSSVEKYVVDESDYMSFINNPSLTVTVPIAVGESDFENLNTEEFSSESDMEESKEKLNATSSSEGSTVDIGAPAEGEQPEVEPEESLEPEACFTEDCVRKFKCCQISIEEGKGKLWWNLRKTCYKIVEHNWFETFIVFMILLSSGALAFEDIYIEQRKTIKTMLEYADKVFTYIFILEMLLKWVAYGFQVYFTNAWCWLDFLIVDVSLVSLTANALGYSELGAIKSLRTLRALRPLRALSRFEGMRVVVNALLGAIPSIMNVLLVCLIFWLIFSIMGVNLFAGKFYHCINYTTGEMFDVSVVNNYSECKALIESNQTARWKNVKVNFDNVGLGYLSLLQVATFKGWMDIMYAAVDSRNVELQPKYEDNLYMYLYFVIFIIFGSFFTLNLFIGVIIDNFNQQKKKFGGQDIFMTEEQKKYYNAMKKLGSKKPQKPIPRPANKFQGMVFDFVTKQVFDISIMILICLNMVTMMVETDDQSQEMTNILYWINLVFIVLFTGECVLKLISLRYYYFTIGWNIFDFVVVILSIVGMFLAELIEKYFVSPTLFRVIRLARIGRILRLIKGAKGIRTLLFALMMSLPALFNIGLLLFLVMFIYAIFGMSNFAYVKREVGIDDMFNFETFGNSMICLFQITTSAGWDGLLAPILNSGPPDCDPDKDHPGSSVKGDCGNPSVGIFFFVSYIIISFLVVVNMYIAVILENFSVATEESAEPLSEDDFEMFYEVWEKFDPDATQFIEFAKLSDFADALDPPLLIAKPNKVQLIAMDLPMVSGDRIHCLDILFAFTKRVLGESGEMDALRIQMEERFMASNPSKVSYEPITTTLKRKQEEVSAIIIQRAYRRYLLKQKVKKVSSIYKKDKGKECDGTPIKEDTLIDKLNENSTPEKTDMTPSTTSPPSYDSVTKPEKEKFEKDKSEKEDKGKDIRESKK

The test system of one assay is sodium channel site 2 binding site (neuronal voltage-gated sodium channel). Kind of assay: [3H]-BTX-B binding. Particulars: 37 vs 39 (83% vs 16%) at 40 μM. More on the design: species or system rat.
For the molecule `CCCCCCCC(O)(C(N)=O)c1cc(C)c(NC(=O)CN(CC)CC)c(C)c1` (stereo not drawn) [Compound 37, 2-[4-(2-Diethylamino-acetylamino)-3,5-dimethylphenyl]-2-hydroxy-nonanoic acid amide], the “increase in inhibition on heptyl for phenyl substitution at R1” value is reported as “greater than 5 fold”.

Staying with this assay, now noted: read-out: observed (actual) IC50, [3H]-BTX.
On to `CCCCCCCC(O)(C(N)=O)c1cc(C)c(NC(=O)CN(CC)CC)c(C)c1` (stereo not drawn) [Compound 37, 2-[4-(2-Diethylamino-acetylamino)-3,5-dimethylphenyl]-2-hydroxy-nonanoic acid amide], for which the IC50 came out at 6 µM. The same measure, in the same setting: under `CCN(CC)CC(=O)Nc1ccc(C2(c3ccccc3)NC(=O)NC2=O)cc1` (stereo not drawn) [Compound 41, 2-Diethylamino-N-[4-(2,5-dioxo-4-phenyl-imidazolidin-4-yl)-phenyl]-acetamide] stands approximately 39.8 µM; under `CCN(CC)CC(=O)Nc1c(C)cc(C2(c3ccccc3)NC(=O)NC2=O)cc1C` (stereo not drawn) [Compound 42, 2-Diethylamino-N-[4-(2,5-dioxo-4-phenyl-imidazolidin-4-yl)-2,6-dimethyl-phenyl]-acetamide], approximately 39.8 µM; under `CCCCCCCC1(c2cc(C)c(NC(=O)CN(CC)CC)c(C)c2)NC(=O)NC1=O` (stereo not drawn) [Compound 44, 2-Diethylamino-N-[4-(4-heptyl-2,5-dioxo-imidazolidin-4-yl)-2,6-dimethyl-phenyl]-acetamide], 13.5 µM.

The same assay, now with this note: test set; −log IC50 (IC50 in μM).
For the molecule `CCCCCCCC(O)(C(N)=O)c1cc(C)c(NC(=O)CN(CC)CC)c(C)c1` (stereo not drawn) [Compound 37, 2-[4-(2-Diethylamino-acetylamino)-3,5-dimethylphenyl]-2-hydroxy-nonanoic acid amide], the “−pIC50 Obsd” value is -0.78.

Regarding `CCN(CC)CC(=O)Nc1ccc(C2(c3ccccc3)NC(=O)NC2=O)cc1` (stereo not drawn) [Compound 41, 2-Diethylamino-N-[4-(2,5-dioxo-4-phenyl-imidazolidin-4-yl)-phenyl]-acetamide], the “−pIC50 Obsd” value was -1.60. In the case of `CCN(CC)CC(=O)Nc1c(C)cc(C2(c3ccccc3)NC(=O)NC2=O)cc1C` (stereo not drawn) [Compound 42, 2-Diethylamino-N-[4-(2,5-dioxo-4-phenyl-imidazolidin-4-yl)-2,6-dimethyl-phenyl]-acetamide], the “−pIC50 Obsd” value is listed as -1.60. Still for that read-out and setting: under `CCCCCCCC1(c2cc(C)c(NC(=O)CN(CC)CC)c(C)c2)NC(=O)NC1=O` (stereo not drawn) [Compound 44, 2-Diethylamino-N-[4-(4-heptyl-2,5-dioxo-imidazolidin-4-yl)-2,6-dimethyl-phenyl]-acetamide] stands -1.13.

The next assay concerns the target human Nav1.2 (Homo sapiens, UniProt Q99250).
Assay: not given
Particulars: HEK cells. It counts as cell-based.
For `CCCCCCCC(O)(C(N)=O)c1cc(C)c(NC(=O)CN(CC)CC)c(C)c1` (stereo not drawn) [Compound 37, 2-[4-(2-Diethylamino-acetylamino)-3,5-dimethylphenyl]-2-hydroxy-nonanoic acid amide], the “reversibility of block on washout” value is on record as “partially reversible upon washout”.

The next assay addresses sodium channel site 2 binding site (neuronal voltage-gated sodium channel).
Assay: not given
To be noted: −pIC50 = −log IC50 (IC50 in μM); training set; ref literature reference; cited from earlier work.
Turning to `CCCC1(c2ccccc2)NC(=O)NC1=O` (stereo not drawn) [Compound 1], the “Final model, −pIC50 Obsd” value is recorded as −2.21. As to `CCCCC1(c2ccccc2)NC(=O)NC1=O` (stereo not drawn) [Compound 2], the “Final model, −pIC50 Obsd” value is −2.01. With `CCCCCC1(c2ccccc2)NC(=O)N(C)C1=O` (stereo not drawn) [Compound 4], the “Final model, −pIC50 Obsd” value was −1.59. On to `CCCCCCC1(c2ccccc2)NC(=O)NC1=O` (stereo not drawn) [Compound 5], for which the “Final model, −pIC50 Obsd” value is listed as −1.11. `CCCCCCCC1(c2ccccc2)NC(=O)NC1=O` (stereo not drawn) [Compound 6]: the “Final model, −pIC50 Obsd” value was −0.70. With `CCCCCCCCC1(c2ccccc2)NC(=O)NC1=O` (stereo not drawn) [Compound 7], the “Final model, −pIC50 Obsd” value is reported as −0.70.

For `CCN1C(=O)NC(=O)C1(C)c1ccccc1` (stereo not drawn) [Compound 8], the “Final model, −pIC50 Obsd” value was −2.86. As for `O=C1NC(=O)C2(CCc3ccccc32)N1` (stereo not drawn) [Compound 9], the “Final model, −pIC50 Obsd” value is given as −3.32. As for `O=C1NC(=O)C2(CCCc3ccccc32)N1` (stereo not drawn) [Compound 10], the “Final model, −pIC50 Obsd” value is on record as −2.93. Turning to `O=C1NC(=O)C2(CCCCc3ccccc32)N1` (stereo not drawn) [Compound 11], the “Final model, −pIC50 Obsd” value is recorded as −2.40. Take `O=C1NC(=O)C2(CCCCCc3ccccc32)N1` (stereo not drawn) [Compound 12]: the “Final model, −pIC50 Obsd” value is on record as −2.40. For the molecule `CC12C(=O)NC(=O)N1CCc1ccccc12` (stereo not drawn) [Compound 13], the “Final model, −pIC50 Obsd” value is −2.40.

On to `CCCCC1(c2ccccc2C)NC(=O)NC1=O` (stereo not drawn) [Compound 14], for which the “Final model, −pIC50 Obsd” value is given as −2.35. `CCCCC1(c2cccc(C)c2)NC(=O)NC1=O` (stereo not drawn) [Compound 15]: the “Final model, −pIC50 Obsd” value was −1.76. In the case of `CCCCC1(c2ccc(C)cc2)NC(=O)NC1=O` (stereo not drawn) [Compound 16], the “Final model, −pIC50 Obsd” value is recorded as −1.98. `O=C1NC(=O)C(c2ccccc2)(C2CCCCC2)N1` (stereo not drawn) [Compound 17]: the “Final model, −pIC50 Obsd” value is reported as −1.76. As to `O=C1C(c2ccccc2)N2CCCCN1C2=O` (stereo not drawn) [Compound 18], the “Final model, −pIC50 Obsd” value is given as −2.85. For `O=C1C(c2ccccc2)N2CCCCCN1C2=O` (stereo not drawn) [Compound 19], the “Final model, −pIC50 Obsd” value is given as −2.63. As for `CCCCCCCC(O)(C(N)=O)c1ccccc1` (stereo not drawn) [Compound 20], the “Final model, −pIC50 Obsd” value is recorded as −0.95. In the case of `CCOC(=O)c1ccc(N)cc1` [Compound 21, benzocaine], the “Final model, −pIC50 Obsd” value is given as −2.96. Consider `COC(=O)[C@H]1[C@@H](OC(=O)c2ccccc2)C[C@@H]2CC[C@H]1N2C` [Compound 24], for which the “Final model, −pIC50 Obsd” value is reported as −1.69.

On to `CC(CNC1CCCCC1)OC(=O)c1ccccc1` (stereo not drawn) [Compound 27], for which the “Final model, −pIC50 Obsd” value is listed as −0.85. Regarding `CCOc1ccc(C(=O)OCCN(CC)CC)cc1` [Compound 29], the “Final model, −pIC50 Obsd” value is recorded as −1.38. Turning to `CC1CCCCN1CCCOC(=O)c1ccccc1` (stereo not drawn) [Compound 30, piperocaine], the “Final model, −pIC50 Obsd” value was −1.11. For the molecule `CCCNC(C)C(=O)Nc1ccccc1C` (stereo not drawn) [Compound 31], the “Final model, −pIC50 Obsd” value is on record as −1.73. With `CCN(CC)CCOC(=O)c1ccc(N)cc1` [Compound 32], the “Final model, −pIC50 Obsd” value is reported as −2.04. As to `CCCOc1ccc(C(=O)OCCN(CC)CC)cc1N` [Compound 33], the “Final model, −pIC50 Obsd” value is given as −0.28. `CCCOc1cc(N)ccc1C(=O)OCCN(CC)CC.Cl` [Compound 34]: the “Final model, −pIC50 Obsd” value is on record as −1.38. For the molecule `O=C1NC(=O)C(c2ccccc2)(c2ccccc2)N1` [Compound 36, phenytoin], the “Final model, −pIC50 Obsd” value is listed as −1.60.
